Test results: ChEMBL document CHEMBL1201862, “PubChem BioAssay data set” (2004)
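Five concentrations, 48 hours, 96-well plates. GI50: concentration for 50% inhibition of growth.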 Calls of active or inactive are those of the source. No stated cut-off is given here; in the data, active = GI50 up to about 1.1 µM and inactive = higher.

How the values were obtained:
Assay in all cases: NCI anticancer screen, dose series, 48 h
SF-268 = tested on: SF-268
NCI-H522 = tested on: NCI-H522
HOP-62 = tested on: HOP-62
MCF7 = tested on: MCF7
SN12C = tested on: SN12C
COLO 205 = tested on: COLO 205
OVCAR-4 = tested on: OVCAR-4
NCI/ADR-RES = tested on: NCI/ADR-RES
SK-OV-3 = tested on: SK-OV-3
HCT-116 = tested on: HCT-116
HOP-92 = tested on: HOP-92
UACC-257 = tested on: UACC-257
MOLT-4 = tested on: MOLT-4
K562 = tested on: K562
OVCAR-3 = tested on: OVCAR-3
UO-31 = tested on: UO-31
CCRF-CEM = tested on: CCRF-CEM
IGROV-1 = tested on: IGROV-1
SR = tested on: SR
M14 = tested on: M14

Structure (SMILES)	GI50 (SF-268)	GI50 (NCI-H522)	GI50 (HOP-62)	GI50 (MCF7)	GI50 (SN12C)	GI50 (COLO 205)	GI50 (OVCAR-4)	GI50 (NCI/ADR-RES)	GI50 (SK-OV-3)	GI50 (HCT-116)	GI50 (HOP-92)	GI50 (UACC-257)	GI50 (MOLT-4)	GI50 (K562)	GI50 (OVCAR-3)	GI50 (UO-31)	GI50 (CCRF-CEM)	GI50 (IGROV-1)	GI50 (SR)	GI50 (M14)
Cc1nc2ccccc2c(=O)n1Nc1ccc(C(=O)O)cc1	> 100 µM (inactive)	> 100 µM (inactive)	> 100 µM (inactive)	> 100 µM (inactive)	> 100 µM (inactive)	> 100 µM (inactive)	> 100 µM (inactive)	> 100 µM (inactive)	> 100 µM (inactive)	> 100 µM (inactive)	> 100 µM (inactive)	> 100 µM (inactive)	> 100 µM (inactive)	> 100 µM (inactive)	> 100 µM (inactive)	> 100 µM (inactive)	> 100 µM (inactive)	> 100 µM (inactive)	–	–
C=C1C(C)C2C(Cc3ccccc3)NC(=O)C23C(OC(C)=O)C=CC(C)(O)C(=O)C(C)C/C=C/C3C1O (stereo not given)	1.45 µM (inactive)	2.43 µM (inactive)	0.0678 µM (active)	6.76 µM (inactive)	39.3 µM (inactive)	0.535 µM (active)	3.55 µM (inactive)	> 65.9 µM (inactive)	0.752 µM (active)	3.54 µM (inactive)	0.569 µM (active)	6.59 µM (inactive)	–	33.1 µM (inactive)	22.4 µM (inactive)	0.296 µM (active)	4.24 µM (inactive)	0.902 µM (active)	3.3 µM (inactive)	7.24 µM (inactive)
O=[N+]([O-])c1ccc(Cl)cc1N/N=C/c1ccnc2ccccc12	> 100 µM (inactive)	> 100 µM (inactive)	> 100 µM (inactive)	> 100 µM (inactive)	> 100 µM (inactive)	> 100 µM (inactive)	> 100 µM (inactive)	53.3 µM (inactive)	> 100 µM (inactive)	42.9 µM (inactive)	–	> 100 µM (inactive)	> 100 µM (inactive)	> 100 µM (inactive)	> 100 µM (inactive)	> 100 µM (inactive)	> 100 µM (inactive)	> 100 µM (inactive)	> 100 µM (inactive)	> 100 µM (inactive)
COc1ccc(Cc2nn(C3OC(COC(C)=O)C(OC(C)=O)C(OC(C)=O)C3OC(C)=O)c(=S)n(-c3ccc(OC)cc3)c2=O)cc1 (stereo not given)	> 100 µM (inactive)	> 100 µM (inactive)	> 100 µM (inactive)	> 100 µM (inactive)	> 100 µM (inactive)	> 100 µM (inactive)	> 100 µM (inactive)	> 100 µM (inactive)	> 100 µM (inactive)	> 100 µM (inactive)	> 87.5 µM (inactive)	> 100 µM (inactive)	> 100 µM (inactive)	> 100 µM (inactive)	> 100 µM (inactive)	> 100 µM (inactive)	> 100 µM (inactive)	> 100 µM (inactive)	–	–
COc1ccc2cc(C(=O)O)ccc2c1OC	> 100 µM (inactive)	> 100 µM (inactive)	> 100 µM (inactive)	> 100 µM (inactive)	> 100 µM (inactive)	> 100 µM (inactive)	–	> 100 µM (inactive)	> 100 µM (inactive)	> 100 µM (inactive)	–	> 100 µM (inactive)	> 100 µM (inactive)	> 100 µM (inactive)	> 100 µM (inactive)	> 100 µM (inactive)	> 100 µM (inactive)	> 100 µM (inactive)	> 100 µM (inactive)	> 100 µM (inactive)
COc1cc(S(=O)(=O)Nc2ccc(-c3csc(N4C(=O)C(C)SC4c4cccs4)n3)cc2)ccc1Cl (stereo not given)	22.5 µM (inactive)	20.6 µM (inactive)	0.558 µM (active)	> 100 µM (inactive)	39.3 µM (inactive)	24.9 µM (inactive)	–	> 100 µM (inactive)	0.481 µM (active)	35.1 µM (inactive)	20.1 µM (inactive)	–	16 µM (inactive)	28.4 µM (inactive)	58.5 µM (inactive)	46.3 µM (inactive)	8.28 µM (inactive)	29.1 µM (inactive)	33.8 µM (inactive)	30.8 µM (inactive)
COC(=O)c1cccc(N[C@@H]2c3cc4c(cc3C(c3cc(OC)c(O)c(OC)c3)[C@H]3C(=O)OCC32)OCO4)c1 (stereo not given in full)	1.4 µM (inactive)	1.4 µM (inactive)	0.239 µM (active)	0.442 µM (active)	1.45 µM (inactive)	1.33 µM (inactive)	7.08 µM (inactive)	0.468 µM (active)	2.86 µM (inactive)	0.682 µM (active)	1.06 µM (active)	0.659 µM (active)	0.0328 µM (active)	0.902 µM (active)	2.07 µM (inactive)	0.718 µM (active)	0.248 µM (active)	3.13 µM (inactive)	–	–
NC(C/C=C/P(=O)(O)O)C(=O)O (stereo not given)	58.1 µM (inactive)	> 100 µM (inactive)	–	> 100 µM (inactive)	> 100 µM (inactive)	> 100 µM (inactive)	> 100 µM (inactive)	> 100 µM (inactive)	> 100 µM (inactive)	> 100 µM (inactive)	> 100 µM (inactive)	> 100 µM (inactive)	> 100 µM (inactive)	> 100 µM (inactive)	> 100 µM (inactive)	> 100 µM (inactive)	> 100 µM (inactive)	> 100 µM (inactive)	> 100 µM (inactive)	> 100 µM (inactive)
Nc1nc(O)c2ncn(C3C=CC(CO)O3)c2n1 (stereo not given)	–	–	> 100 µM (inactive)	75.2 µM (inactive)	> 100 µM (inactive)	> 100 µM (inactive)	> 100 µM (inactive)	> 100 µM (inactive)	–	> 100 µM (inactive)	> 100 µM (inactive)	> 100 µM (inactive)	> 100 µM (inactive)	–	> 100 µM (inactive)	> 100 µM (inactive)	11.1 µM (inactive)	–	> 100 µM (inactive)	> 100 µM (inactive)
CC(C)[C@](O)(C(=O)OCC1=CCN2CC[C@@H](O)[C@@H]12)[C@H](C)O	> 375 µM (inactive)	59.4 µM (inactive)	> 335 µM (inactive)	> 375 µM (inactive)	> 375 µM (inactive)	> 375 µM (inactive)	> 375 µM (inactive)	> 375 µM (inactive)	> 375 µM (inactive)	> 375 µM (inactive)	> 375 µM (inactive)	> 375 µM (inactive)	> 375 µM (inactive)	> 375 µM (inactive)	> 375 µM (inactive)	> 375 µM (inactive)	> 375 µM (inactive)	> 308 µM (inactive)	–	–
O=C1NC(=O)C2C3C=CC(C12)C1C2C(=O)NC(=O)C2C31 (stereo not given)	> 250 µM (inactive)	151 µM (inactive)	74.3 µM (inactive)	164 µM (inactive)	192 µM (inactive)	82.4 µM (inactive)	223 µM (inactive)	> 250 µM (inactive)	98.6 µM (inactive)	211 µM (inactive)	128 µM (inactive)	238 µM (inactive)	> 100 µM (inactive)	234 µM (inactive)	242 µM (inactive)	211 µM (inactive)	54.8 µM (inactive)	186 µM (inactive)	135 µM (inactive)	240 µM (inactive)
